According to ChEMBL document CHEMBL1201862, “PubChem BioAssay data set” (2004):
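All cell lines were grown in 96-well plates and treated with compound for 48 hours. GI50: concentration for 50% inhibition of growth.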 The source made the active and inactive calls. Rule as the data show it: active = GI50 up to about 1.1 µM and inactive = higher.

What was measured:
Test in all cases: NCI tumour cell line growth inhibition, 48 h
DMS-114 = test system: DMS-114
HOP-18 = test system: HOP-18
KM-20L2 = test system: KM-20L2
DMS-273 = test system: DMS-273
M19-MEL = test system: M19-MEL
SNB-78 = test system: SNB-78
DLD-1 = test system: DLD-1
LXFL 529 = test system: LXFL 529
XF498 = test system: XF498

Measured: GI50

CC(C)[Si](OCC1CC(C[C@H]2CC(C[C@H]3C[C@@H](CO[Si](C(C)C)(C(C)C)C(C)C)OC(C)(C)O3)OC(C)(C)O2)OC(C)(C)O1)(C(C)C)C(C)C (some centres undefined)
inactive: DMS-114 > 100 µM | HOP-18 > 100 µM | KM-20L2 > 100 µM | DMS-273 > 100 µM | M19-MEL > 100 µM | SNB-78 > 100 µM | DLD-1 > 100 µM

O=C(Nc1nc2ccc([N+](=O)[O-])cc2s1)C(=O)C(C1OC(=O)c2ccccc21)[N+](=O)[O-] (centres undefined)
inactive: LXFL 529 85.1 µM | KM-20L2 > 100 µM | M19-MEL > 100 µM | SNB-78 85.5 µM | XF498 27.6 µM | DLD-1 64.6 µM

NC(=S)NNc1c([N+](=O)[O-])cnn(-c2ccccc2)c1=O
inactive: DMS-114 17.3 µM | LXFL 529 9.02 µM | KM-20L2 15.9 µM | DMS-273 18.3 µM | M19-MEL 13.2 µM | SNB-78 23.3 µM | XF498 18.7 µM | DLD-1 14.4 µM

C[n+]1cccc(NC(=O)c2ccc(NC(=O)C34CCC(C(=O)Nc5ccc(C(=O)Nc6ccc[n+](C)c6)cc5)(CC3)CC4)cc2)c1
inactive: DMS-114 13.8 µM | LXFL 529 2.81 µM | HOP-18 25.2 µM | KM-20L2 > 100 µM | DMS-273 6.82 µM | M19-MEL 54.1 µM | SNB-78 > 100 µM | DLD-1 10.9 µM

Cc1ccc(Cl)c(NC(=O)C(=O)C(C(=O)c2ccncc2)C2OC(=O)c3ccccc32)c1 (centres undefined)
inactive: DMS-114 > 100 µM | LXFL 529 > 100 µM | HOP-18 > 100 µM | M19-MEL > 100 µM | SNB-78 > 100 µM | XF498 > 100 µM | DLD-1 > 100 µM

O=c1cccccc1NCCCNc1cccccc1=O
inactive: DMS-114 > 100 µM | LXFL 529 > 100 µM | KM-20L2 > 100 µM | DMS-273 > 100 µM | M19-MEL > 100 µM | SNB-78 > 100 µM | XF498 > 100 µM

COCC(O)CN1C(N)=NC(O)C1O (centres undefined)
inactive: DMS-114 > 100 µM | LXFL 529 > 100 µM | HOP-18 > 100 µM | KM-20L2 > 100 µM | DMS-273 > 10 µM | M19-MEL > 100 µM | SNB-78 > 100 µM | DLD-1 > 100 µM

CC(=O)OC1COC(N2C(=O)C(=O)c3cc(Br)c([N+](=O)[O-])cc32)C(OC(C)=O)C1OC(C)=O (centres undefined)
inactive: DMS-114 24.7 µM | LXFL 529 50.8 µM | HOP-18 > 100 µM | KM-20L2 > 100 µM | DMS-273 > 100 µM | M19-MEL 21.2 µM | SNB-78 > 100 µM | XF498 35.9 µM | DLD-1 34.4 µM

COc1cc2c[n+]3ccc4cc(OC)c(OC)cc4c3cc2cc1O
inactive: LXFL 529 > 100 µM | HOP-18 > 100 µM | KM-20L2 > 100 µM | M19-MEL > 100 µM | XF498 > 100 µM | DLD-1 > 100 µM

CCOC(=O)NC(=O)c1cn(CCCOC(=O)NCCCCCCNC(=O)OCCCn2c(=O)c(C(=O)NC(=O)OCC)cn(C)c2=O)c(=O)n(C)c1=O
inactive: DMS-114 > 100 µM | LXFL 529 > 100 µM | HOP-18 52.4 µM | KM-20L2 > 100 µM | DMS-273 > 100 µM | M19-MEL > 100 µM | DLD-1 > 100 µM

COc1ccc(/C=[N+](\[O-])[C@H](COCc2ccccc2)c2ccccc2)cc1
inactive: DMS-114 > 100 µM | LXFL 529 77.8 µM | HOP-18 57.4 µM | KM-20L2 > 100 µM | DMS-273 > 100 µM | SNB-78 > 100 µM | XF498 > 100 µM | DLD-1 89.1 µM

COc1ccc2oc(-c3cc4cc(OC)ccc4o3)cc2c1
inactive: LXFL 529 > 100 µM | KM-20L2 > 100 µM | DMS-273 > 100 µM | SNB-78 > 100 µM | XF498 > 100 µM | DLD-1 > 100 µM

CN(CC(=O)O)S(=O)(=O)c1ccc(F)cc1
inactive: LXFL 529 > 100 µM | HOP-18 > 100 µM | KM-20L2 > 100 µM | DMS-273 > 100 µM | M19-MEL > 100 µM | XF498 > 100 µM | DLD-1 > 100 µM

CC(C)(C)C1CCP(=O)(c2ccccc2)CC1 (centres undefined)
inactive: DMS-114 > 100 µM | LXFL 529 > 100 µM | HOP-18 > 100 µM | KM-20L2 > 100 µM | DMS-273 > 100 µM | M19-MEL > 100 µM | SNB-78 > 100 µM | XF498 2.1 µM | DLD-1 > 100 µM

CCN(CC)c1ccc(/N=N/c2ccc([N+](=O)[O-])cc2OC(=O)/C=C/c2ccccc2)c(OC(=O)/C=C/c2ccccc2)c1
inactive: DMS-114 3.49 µM | LXFL 529 21.5 µM | HOP-18 1.7 µM | DMS-273 5.5 µM | M19-MEL 5 µM | SNB-78 > 100 µM | XF498 6.82 µM | DLD-1 4.18 µM

CCCCN1C(=O)C2c3[nH]c4ccccc4c3C3CCCCC3C2C1=O.CCCCN1C(=O)C2c3[nH]c4ccccc4c3[C@@H]3CCCCC3C2C1=O (centres undefined)
inactive: DMS-114 12.9 µM | LXFL 529 13.6 µM | HOP-18 2.26 µM | KM-20L2 36.6 µM | DMS-273 10.3 µM | M19-MEL 37.2 µM | SNB-78 15 µM | XF498 12.5 µM | DLD-1 12.9 µM

Cc1ccc(NC(=O)CCc2nnc3s/c(=C\c4cccc([N+](=O)[O-])c4)c(=O)n23)cc1
inactive: DMS-114 > 100 µM | LXFL 529 > 100 µM | HOP-18 > 100 µM | KM-20L2 > 100 µM | DMS-273 > 100 µM | M19-MEL > 100 µM | SNB-78 > 100 µM | XF498 > 100 µM | DLD-1 > 100 µM

O/N=C(\c1nc2ccc(Cl)cc2nc1O)C(O)c1ccc(Cl)cc1Cl (centres undefined)
inactive: DMS-114 > 100 µM | LXFL 529 > 100 µM | KM-20L2 > 100 µM | DMS-273 > 100 µM | M19-MEL > 100 µM | SNB-78 > 100 µM | XF498 > 100 µM | DLD-1 > 100 µM

Cn1c2ccccc2c2ccc3c(c21)C(=O)C=CC3=O
inactive: DMS-114 8.26 µM | LXFL 529 2.95 µM | HOP-18 2 µM | KM-20L2 17.1 µM | DMS-273 12.9 µM | M19-MEL 10.5 µM | SNB-78 21.1 µM | XF498 2.15 µM | DLD-1 2.3 µM

Cc1ccc(NC(=O)CC2Sc3ccccc3NC2=O)c(C)c1 (centres undefined)
inactive: DMS-114 17.9 µM | LXFL 529 24.7 µM | HOP-18 11 µM | KM-20L2 10.9 µM | DMS-273 12.2 µM | M19-MEL 15.3 µM | SNB-78 24.7 µM | XF498 18.2 µM | DLD-1 8.15 µM

CC(C(=O)[O-])S(=O)(=O)O.CCc1c2cc(OC)c(OC)cc2cc2c3cc(OC)c(OC)cc3cc[n+]12
inactive: DMS-114 7.83 µM | LXFL 529 5.09 µM | HOP-18 68.1 µM | KM-20L2 > 100 µM | DMS-273 45.2 µM | M19-MEL 13.6 µM | SNB-78 33.7 µM | XF498 5.64 µM | DLD-1 65 µM

CC(=O)OC(=O)O/C=C\CCl
inactive: DMS-114 > 100 µM | LXFL 529 > 100 µM | HOP-18 > 100 µM | KM-20L2 > 100 µM | DMS-273 62.8 µM | M19-MEL > 100 µM | SNB-78 > 100 µM | DLD-1 > 100 µM

CCc1ccccc1NC(=O)/C(CC(=O)c1c(C)[n+]([O-])c2ccccc2[n+]1[O-])=N\NS(=O)(=O)c1ccc(C)cc1
inactive: DMS-114 12.3 µM | LXFL 529 26.3 µM | KM-20L2 > 100 µM | DMS-273 35.4 µM | M19-MEL 16 µM | SNB-78 33.7 µM | DLD-1 24 µM
